Results from US8871751B2, “Compositions and methods relating to nuclear hormone and steroid hormone receptors including inhibitors of estrogen receptor alpha-mediated gene expression and inhibition of breast cancer” (The Board of Trustees of the University of Illinois, priority 2008, dated 2014).

What was measured:
[1] = molecular target: T1, human ERα binding to flcERE (Homo sapiens, UniProt P03372); experiment: FAMA: inhibition of ERα binding to flcERE; conditions: FAMA, binding to HRE, 5 concentrations 0.5-10 μM, sequential method; read-out: IC50 ERα
T1 construct: Full-length FLAG-tagged human ERα was expressed and purified as described previously (27); FLAG; made in house
T1 sequence (P03372 1-595): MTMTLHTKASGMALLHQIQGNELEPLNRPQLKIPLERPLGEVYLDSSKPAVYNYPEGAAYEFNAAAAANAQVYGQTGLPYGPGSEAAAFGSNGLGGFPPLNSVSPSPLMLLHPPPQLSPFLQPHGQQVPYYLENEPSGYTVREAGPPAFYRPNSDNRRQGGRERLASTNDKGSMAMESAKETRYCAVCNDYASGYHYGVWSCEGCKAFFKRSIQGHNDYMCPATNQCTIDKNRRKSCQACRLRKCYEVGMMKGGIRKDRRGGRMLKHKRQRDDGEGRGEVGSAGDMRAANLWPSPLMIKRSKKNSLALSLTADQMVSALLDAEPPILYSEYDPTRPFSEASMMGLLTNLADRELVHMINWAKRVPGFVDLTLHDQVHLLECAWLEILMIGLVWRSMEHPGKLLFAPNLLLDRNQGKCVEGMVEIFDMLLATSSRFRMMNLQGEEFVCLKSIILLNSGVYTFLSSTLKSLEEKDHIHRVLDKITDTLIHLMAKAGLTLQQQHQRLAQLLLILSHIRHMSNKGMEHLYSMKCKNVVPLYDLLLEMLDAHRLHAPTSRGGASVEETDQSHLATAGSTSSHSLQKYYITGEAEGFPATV
Protocol: Prior to screening, the 10 mM library stocks were diluted to produce replica libraries in 384-well plates containing each small molecule at 0.25 mM (in DMSO). In our initial studies we were concerned that forming the flcERE-ERα complex first and then adding the candidate small molecule inhibitors would miss small molecules that bind at the interface. We therefore screened using the “sequential” method in which the candidate small molecules were first incubated with ERα and followed by addition of the flcERE. The assay for binding of ERα to the flcERE is a modification of our earlier assay (27). Assays were carried out at room temperature in black wall 384-well microplates (Greiner/Bio-One) in a total volume of 10 μl in buffer containing 20 mM Tris pH 7.5, 10% glycerol, 0.2 mM EDTA, 2 mM DTT, 100 mM KCl, 0.5 ng/μl poly dl:dC, […] bovine serum albumin and 100 nM 17β-estradiol (E2). For high throughput screening, a master mix without ERα and probe was prepared at 4° C. The master mix was divided into 2 parts. ERα was added to one part to 5 nM in the final assays. 7 μl of the ERα-containing mix was then dispensed into each well of a 384-well plate on ice. 100 nl of the compounds being tested was then added using a pin-transporter (V & P Scientific, Inc, CA) to a final concentration of 2.5 μM. The samples were mixed using the pin-transporter and sedimented by centrifugation for 2 min. at 4° C. and incubated on ice for 10 min. The flcERE probe was added to the other aliquot of the mix to 1 nM. 3 μl of the mix containing the flcERE probe was added to each well containing ERα and the test compound. The samples were mixed using the pin-transporter, the plates were briefly centrifuged and incubated at room temperature for 10 min. and fluorescence anisotropy (FA) was measured using a BMG PheraStar (BMG Labtech) microplate reader (module: 485 520) with excitation at 485λ and emission at 520λ. To identify small molecules that were highly fluorescent, or quench fluorescence, fluorescence intensity was also measured.
(§1) Dose response curves for selected compounds were carried out as described for the HTS screen except that each well contained the indicated concentration of test compound. PR assays were carried out in the same buffer used for ERα assays and contained 1 nM flcPRE and 11 nM PR-B and 100 nM progesterone. The buffer used for AR was similar but also contained 5 μM ZnCl, 5 mM NaF, 0.6 μM CHAPS and 100 nM dihydrotestosterone. AR assays contained 1 nM flcARE and 50 nM full-length wild-type AR.

[2] = molecular target: T2, human androgen receptor (AR) binding to flARE (Homo sapiens, UniProt P10275); experiment: FAMA: inhibition of AR binding to flcARE; conditions: binding to HRE, 5 concentrations 0.5-10 μM, sequential method
T2 construct: AR assays contained 1 nM flcARE and 50 nM full-length wild-type AR; FLAG; made in house
T2 sequence (P10275 1-920): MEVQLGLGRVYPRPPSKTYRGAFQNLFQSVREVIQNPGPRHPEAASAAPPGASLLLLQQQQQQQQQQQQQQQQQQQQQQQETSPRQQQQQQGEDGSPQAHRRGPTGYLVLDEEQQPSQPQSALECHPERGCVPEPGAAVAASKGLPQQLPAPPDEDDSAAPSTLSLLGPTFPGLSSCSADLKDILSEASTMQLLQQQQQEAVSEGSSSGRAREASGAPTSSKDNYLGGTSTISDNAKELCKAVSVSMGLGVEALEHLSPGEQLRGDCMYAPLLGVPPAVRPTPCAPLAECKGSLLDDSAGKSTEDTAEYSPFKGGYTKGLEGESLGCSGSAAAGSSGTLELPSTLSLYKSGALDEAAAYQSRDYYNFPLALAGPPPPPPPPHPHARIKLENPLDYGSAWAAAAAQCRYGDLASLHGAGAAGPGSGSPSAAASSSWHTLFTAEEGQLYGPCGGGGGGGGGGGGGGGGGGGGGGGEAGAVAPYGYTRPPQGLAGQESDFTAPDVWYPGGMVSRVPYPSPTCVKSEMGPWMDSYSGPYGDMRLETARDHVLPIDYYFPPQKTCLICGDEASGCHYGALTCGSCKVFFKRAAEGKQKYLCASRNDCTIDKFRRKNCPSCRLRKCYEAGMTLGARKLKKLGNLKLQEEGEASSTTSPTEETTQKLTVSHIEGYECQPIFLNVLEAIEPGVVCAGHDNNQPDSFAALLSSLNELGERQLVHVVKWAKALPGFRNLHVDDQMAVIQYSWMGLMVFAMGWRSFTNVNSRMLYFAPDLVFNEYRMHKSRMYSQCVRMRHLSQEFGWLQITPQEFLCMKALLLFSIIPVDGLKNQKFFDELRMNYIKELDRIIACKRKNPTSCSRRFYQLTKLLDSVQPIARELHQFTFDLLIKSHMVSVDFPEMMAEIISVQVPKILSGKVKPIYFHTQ
Protocol: as §1
(§2) Specificity was evaluated in dose-response studies by quantitative FAMA using purified full-length human PR binding to a fluorescein-labeled progesterone/glucocorticoid response element (flPRE) and full-length human androgen receptor (AR) binding to a fluorescein-labeled androgen response element (flARE).

[3] = molecular target: T3, human PR-B binding to flPRE (Homo sapiens, UniProt P06401); experiment: FAMA: inhibition of PR binding to flcPRE; conditions: binding to HRE, 5 concentrations 0.5-10 μM, sequential method
T3 construct: FLAG; made in house
T3 sequence (P06401 1-933): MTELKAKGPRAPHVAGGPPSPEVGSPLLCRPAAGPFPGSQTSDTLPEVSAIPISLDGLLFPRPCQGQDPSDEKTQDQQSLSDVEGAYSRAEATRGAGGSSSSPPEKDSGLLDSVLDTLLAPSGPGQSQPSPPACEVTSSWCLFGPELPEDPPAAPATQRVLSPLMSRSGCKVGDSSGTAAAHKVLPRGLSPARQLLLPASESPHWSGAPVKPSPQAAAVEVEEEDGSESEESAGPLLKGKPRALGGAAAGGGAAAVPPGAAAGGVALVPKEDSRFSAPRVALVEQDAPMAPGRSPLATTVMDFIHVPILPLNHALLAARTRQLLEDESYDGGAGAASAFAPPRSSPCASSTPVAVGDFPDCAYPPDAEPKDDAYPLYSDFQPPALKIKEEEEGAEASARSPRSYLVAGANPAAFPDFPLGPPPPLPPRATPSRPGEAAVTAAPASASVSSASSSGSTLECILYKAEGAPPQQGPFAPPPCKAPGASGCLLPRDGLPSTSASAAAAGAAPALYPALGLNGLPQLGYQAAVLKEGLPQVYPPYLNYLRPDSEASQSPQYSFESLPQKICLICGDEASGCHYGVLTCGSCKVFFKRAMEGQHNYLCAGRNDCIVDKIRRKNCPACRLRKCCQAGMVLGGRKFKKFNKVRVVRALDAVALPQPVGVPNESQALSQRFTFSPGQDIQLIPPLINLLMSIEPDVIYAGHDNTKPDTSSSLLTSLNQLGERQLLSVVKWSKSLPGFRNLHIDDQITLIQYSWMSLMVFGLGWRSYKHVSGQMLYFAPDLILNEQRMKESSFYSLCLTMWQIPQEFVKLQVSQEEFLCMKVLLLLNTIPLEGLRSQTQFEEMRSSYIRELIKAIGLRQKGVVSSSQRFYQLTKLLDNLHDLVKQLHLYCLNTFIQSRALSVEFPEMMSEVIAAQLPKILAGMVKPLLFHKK
Protocol: as §1, §2

| Structure (SMILES) | IC50 [1] [µM] | IC50 [2] [µM] | IC50 [3] [µM] |
| --- | --- | --- | --- |
| O=C(OC1C2COC(O2)C(OC(=O)c2ccccc2)C1OC(=O)c1ccccc1)c1ccccc1 (stereo not shown) [Compound 1387] | 4.5 | 4.8 | 6.5 |
| CN(C)c1ncnc2c1cnn2-c1ccc(Cl)cc1 [Compound 1445] | 0.6 | 0.7 | 1.2 |
| CC1CCCCN1.CC1CCCCN1.[Cl][Cu][Cl] (stereo not shown) [Compound 1826] | 7 | 8 | 6 |
| O=C(O)/C=C/c1ccc([N+](=O)[O-])cc1 [Compound 2067] | 5 | 3 |  |
| CCNc1ccc(-c2ccc(NCC)cc2)cc1 [Compound 2674] | 5.5 | 5.8 | 6.2 |
| CNc1ccccc1O [Compound 3879] | 3.7 | 7.5 | 6.5 |
| Brc1cccs1 [Compound 4456] | 7.5 | > 10 | > 10 |
| O=C(O)/C=C/c1ccccc1Cl [Compound 4792] | > 10 | 7.5 | > 10 |
| CCCCCCCCCCCCCCCC[N+](C)(C)CCN(Cc1ccc(OC)cc1)c1ncccn1 [Compound 5648] | 6.5 | 4.5 | 7.3 |
| O=[N+]([O-])/C=C/c1ccco1 [Compound 5650] | 8 | 5.5 | 7.5 |
| CCC1CCC(C)NC1 (stereo not shown) [Compound 6119] | 9 | 7.4 | 9 |
| O=[N+]([O-])c1ccc(CO)o1 [Compound 6454] | 5.8 | > 10 |  |
| c1ccc(-c2oc(-c3ccccc3)c(CN3CCCCC3)c2CN2CCCCC2)cc1 [Compound 7473] | 9 | > 10 | > 10 |
| O=C(O)c1cccc2cccc(-c3cccc4cccc(C(=O)O)c34)c12 [Compound 7810] | > 10 | > 10 | > 10 |
| O=C1C(CO)C(CO)C(CO)C1CO (stereo not shown) [Compound 9064] | > 10 | > 10 | > 10 |
| CCCCCCC1(c2cccnc2)NC(=O)NC1=O (stereo not shown) [Compound 9503] | 2.6 | > 10 | > 10 |
| Nc1ccc(S(=O)(=O)c2ccc(NCN3C(=O)NC(=O)C(=O)C3=O)cc2)cc1 [Compound 34238] | 1.8 |  | > 10 |

Results, then the compound that gave them:

| IC50 [1] [µM] | IC50 [2] [µM] | IC50 [3] [µM] | Structure (SMILES) |
| --- | --- | --- | --- |
| 2.1 | 1.7 | 2.7 | NNC(=O)OCc1ccccc1 [Compound 2287] |
| 0.8 | 1 | 1.5 | CCCCC(C)O (stereo not shown) [Compound 3706] |
| 2.5 |  | 2.9 | CCCCCCCC(=O)OC [Compound 3710] |
|  |  | 7 | CCCCCCCCCC(=O)OC [Compound 3713] |
| 2.5 | 4.8 | 4 | CCOC(=O)C(CC)(C(=O)OCC)C(C)C [Compound 4695] |
| 2 | 2 | 2.7 | CCCN(C(C)=O)c1ccccc1 [Compound 4700] |
| 8 | 6.5 | 8.8 | CC(C)CCOC(=S)S [Compound 4864] |
| 5.8 | 3.7 | 5.3 | CC(C)/C=N/Nc1ccc([N+](=O)[O-])cc1[N+](=O)[O-] [Compound 6122] |
| 5 |  | > 10 | CC(=O)N(C)c1ccc(N)cc1 [Compound 7107] |
| 5 | 7.5 |  | O=C(CCBr)OCCc1ccccc1 [Compound 7122] |
| 9.8 | > 10 | > 10 | CCN(CC)CCOC(=O)c1cc(Br)cc(-c2ccccc2)c1O [Compound 7450] |
| 9.5 | > 10 | > 10 | Cc1ccccc1NCC(C)O (stereo not shown) [Compound 7484] |
| 9 | > 10 | > 10 | C=CCOC(=O)c1ccc(Cl)cc1 [Compound 8216] |
|  |  | 0.4 | C=C(CC(=O)O)C(=O)O.C=CC(=O)O [Compound 146443] |
| 9 | 9 |  | CCc1c(O)c2c(c(O)c1C(C)=O)C(=O)c1c(cc(O)c(C(=O)O)c1C(=O)O)C2=O [Compound 170008] |
